Results from patent US4959368A, “Therapeutic agent for neurological diseases” (Mitsui Petrochemical Industries Ltd., priority 1986, dated 1990).

Legend:
mice = experiment: Acute toxicity, mouse; assay type: in vivo; settings: 24 hours; for Number of dead animals/number of test animals: Table 7, 1000 mg/kg p.o.; for Presumed LD50: Table 7, p.o., 1440 min
Protocol: The acute toxicity of the compounds of the invention was examined by the following method.
Male ddy-strain 5-week old mice and male Wistar-strain 8 week old rats, five per group, were used as experimental animals. Each of the compounds was dissolved in saline and administered perorally, and the toxicity of the compound was assessed 24 hours after the administration.

[1] = system: mouse neuroblastoma cell line neuro-2a; experiment: Activity on neuro-2a, cells with outgrown neurites; assay type: cell-based
Protocol: In order to examine the effects of the test compounds, the following method was also employed.
Mouse neuro 2a cells in the logarithmic growth period in the Dulbecco's modified Eagle's medium (DMEM) containing 10% FCS was seeded in a 48-well plate so that the number of cells was 1,000 cells/well, and cultured for one day in 0.25 ml of the culture fluid in each well. The culture medium was then replaced by a medium containing each of the test compounds and FCS, and the cells were further cultured for 24 hours. Then, a 4% aqueous glutaraldehyde solution in the same amount as the medium (0.25 ml) was added, and the culture fluid was left to stand at room temperature for 2 hours to fix the cells. After washing with water, a 0.05% aqueous solution of methylene blue was added to stain the cells. Under a microscope, the number of cells containing outgrown neurites (cells having at least one neutrite with a length at least two times as large as the long diameter of the cell) was counted visually, and the proportion of these cells in the entire cells was calculated. The well was observed over 5 or more visual fields (at least 2% of the entire surface area of the well) continuous to the left and right from a mark put at the center of the well, and more than 200 cells was counted. One drug compound was used in 6 different concentrations at most, and three runs were conducted for each concentration.

[2] = system: human neuroblastoma cell line GOTO; experiment: Activity on neuroblastoma cell line GOTO (cell number, number and length of neurites); assay type: cell-based
Protocol: The biological activities in vitro of the compounds of formula (I) on cells of the nervous system were tested. The cells tested were human neuroblastoma cell line GOTO [see Sekiguchi, M., Oota, T., Sakakibara, K., Inui, N. & Fujii, G., Japan. J. Exp. Med., 49, 67-83 (1979)], and neuroblastoma cell line NB-1 [see Miyake, S., Shimo, Y., Kitamura, T., Nojyo, Y., Nakamura, T., Imkashuku, S. and Abe, T., The Autonomic Nervous System, 10, 115-120 (1973)], and mouse neuroblastoma cell line neuro-2a (Dainippon Pharmaceutical Co., Ltd.) which have been established as the cells of the nervous system. The above neuve cells were grown in an incubator at 37° C. in the presence of 5% carbon dioxide gas exponentially, and then cultivated for a certain period of time together with the compounds of formula (I).
The effect of the compounds of this invention on neuroblastoma cells was examined by the following method.
A culture medium [composed of 45% of RPMI 1640 medium, 45% modified Eagle's medium (MEM) and 10% of fetal calf serum (FCS) and containing penicillin G sodium (100 units/ml) and streptomycin sulfate (100 microgram/ml)] containing neurobalstoma cell line GOTO in the logarithmic growth period was poured in an amount of 2 ml each into polystyrene dishes (35 mm; made by Corning Co.) so that the cell concentration was 2 to 6×10^4 cells per dish, and the cells were cultured for 1 to 2 days in a carbon dioxide gas incubator containing 5% of carbon dioxide gas in air at 37° C. Then, the culture fluid was removed, and 2 ml of a fresh serum-free culture fluid (consisting of 50% of RPMI medium and 50% of MEM medium and containing penicillin G sodium and streptomycin sulfate in the same amounts as above) was added. At the same time, a presterilized PBS solution (phosphate buffered saline) of each of the test compounds in various concentrations was added to each of the dishes. After culturing for 24 hours, the number of living cells was counted. Furthermore, the culture was photographed, and from the photos, the number and length of neurites per cell were measured. The numer of living cells was counted for 3 to 6 dishes by resistance to staining with erythrosine dye. The number and length of the neurites were measured with regard to 6 photos (more than 200 cells per photo).

[3] = Table 3 Run No. 11, 0.1 mM, control 2.5 ± 0.6
[4] = Table 3 Run No. 8, 0.3 mM, control 3.7 ± 0.4
[5] = Table 3 Run No. 8, 0.5 mM, control 3.7 ± 0.4
[6] = Table 3 Run No. 8, 1 mM, control 3.7 ± 0.4

In the case of `CN1C(=O)Cc2cnc(N3CCN(Cc4ccc5c(c4)OCO5)CC3)nc21` [Compound 438, 5,6-Dihydro-7-methyl-2[4-(3,4-methylenedioxyphenylmethyl)piperazino]-6-oxo(7H)pyrrolo[2,3-d]pyrimidine naphthalene-2-sulfonate], the “Number of dead animals/number of test animals” value (mice) is reported as 0/5.

`CN1Cc2nc(N3CCNCC3)ncc2C1=O` [Compound 606] was tested, and the “Cells having neurites with a length at least twice the long diameter of cell/total number of cells” value ([1]; Table 3 Run No. 6, 0.1 mM, control 4.4 ± 0.9) was 6.9 ± 1.8%, the “Cells having neurites with a length at least twice the long diameter of cell/total number of cells” value ([1]; Table 3 Run No. 6, 3 mM, control 4.4 ± 0.9) was 11.9 ± 2.1% and the “Number of dead animals/number of test animals” value (mice) was 0/5. For the same compound, the “Presumed LD50” value (mice) was greater than 1000 mg/kg p.o.

`CN1Cc2nc(N3CCNCC3)ncc2C1=O` [Compound 608] was tested, and the “Number of dead animals/number of test animals” value (mice) was 0/5 and the “Presumed LD50” value (mice) was greater than 1000 mg/kg p.o.

With `CCOC(=O)CN1CCN(c2ncc(C(=O)OC)c(NC(C)C)n2)CC1` [Compound 100, Methyl 2-(4-ethoxycarbonylmethylpiperazino)-4-isopropylaminopyrimidine-5-carboxylate] the “Number of neurites/cell (mean ± S.D.)” value ([2]; Table 1, Run No. 7 by footnote, 10 μg/ml, control 1.77 ± 0.68) was 2.00 ± 0.79 neurites/cell and the “Length of neurites (mean ± S.D.)” value ([2]; Table 1, Run No. 7 by footnote, 10 μg/ml, control 42.20 ± 17.75, all *P <0.01) was 56.06 ± 26.47 μm/cell.

For `CC(C)N1Cc2nc(N3CCNCC3)ncc2C1=O` [Compound 628], the “Length of neurites (mean ± S.D.)” value ([2]; Table 1, Run No. 6 by footnote, 1 μg/ml, control 42.48 ± 19.64, all *P <0.01) was 55.72 ± 25.08 μm/cell, the “Number of neurites/cell (mean ± S.D.)” value ([2]; Table 1, Run No. 6 by footnote, 10 μg/ml, control 1.79 ± 0.80) was 2.06 ± 0.81 neurites/cell and the “Length of neurites (mean ± S.D.)” value ([2]; Table 1, Run No. 6 by footnote, 10 μg/ml, control 42.48 ± 19.64, all *P <0.01) was 53.68 ± 22.36 μm/cell. For the same compound, the “Number of neurites/cell (mean ± S.D.)” value ([2]; Table 1, second control group (Run No. 6 by footnote), 1 μg/ml, control 1.79 ± 0.80) was 1.90 ± 0.81 neurites/cell.

`COc1cc2cnc(N3CCNCC3)nc2cc1OC` [Compound 940] was tested, and the “Number of neurites/cell (mean ± S.D.)” value ([2]; Table 1 Run No. 1, 10 μg/ml, control 2.09 ± 0.61) was 2.12 ± 0.60 neurites/cell, the “Number of cells (mean ± S.E.)” value ([2]; Table 1 Run No. 1, 10 μg/ml, control 14.34 ± 0.72) was 21.55 ± 2.36 × 10^4 /dish and the “Length of neurites (mean ± S.D.)” value ([2]; Table 1 Run No. 1, 10 μg/ml, control 70.10 ± 43.03) was 77.92 ± 49.91 μm/cell. For the same compound, the “Cells having neurites with a length at least twice the long diameter of cell/total number of cells” value [1, 3] was 11.5 ± 0.2% and the “Cells having neurites with a length at least twice the long diameter of cell/total number of cells” value ([1]; Table 3 Run No. 11, 0.3 mM, control 2.5 ± 0.6) was 17.0 ± 1.2%.

In the case of `CCC(=O)N1Cc2nc(N3CCNCC3)ncc2C1=O` [Compound 678], the “Cells having neurites with a length at least twice the long diameter of cell/total number of cells” value [1, 3] is reported as 4.1 ± 2.2%, the “Cells having neurites with a length at least twice the long diameter of cell/total number of cells” value ([1]; Table 3 Run No. 11, 1 mM, control 2.5 ± 0.6) is reported as 16.1 ± 1.6% and the “Cells having neurites with a length at least twice the long diameter of cell/total number of cells” value ([1]; Table 3 Run No. 11, 3 mM, control 2.5 ± 0.6) is reported as 9.1 ± 2.2%. For the same compound, the “Number of dead animals/number of test animals” value (mice) was 0/5.

In the case of `CC(=O)N1Cc2nc(N3CCNCC3)ncc2C1=O` [Compound 650, 6-Acetyl-2-piperazino-5-oxo-5,6-dihydro(7H)pyrrolo[3,4-d]pyrimidine naphthalene-2-sulfonate], the “Number of dead animals/number of test animals” value (mice) is reported as 0/5.

In the case of `CN1C(=O)Cc2cnc(N3CCNCC3)nc21` [Compound 412], the “Cells having neurites with a length at least twice the long diameter of cell/total number of cells” value ([1]; Table 3 Run No. 3, 0.3 mM, control 3.9 ± 0.3) is reported as 16.6 ± 2.6%, the “Cells having neurites with a length at least twice the long diameter of cell/total number of cells” value ([1]; Table 3 Run No. 3, 1 mM, control 3.9 ± 0.3) is reported as 44.2 ± 1.4% and the “Cells having neurites with a length at least twice the long diameter of cell/total number of cells” value ([1]; Table 3 Run No. 4, 0.3 mM, control 3.1 ± 0.2) is reported as 15.8 ± 2.3%. The “Cells having neurites with a length at least twice the long diameter of cell/total number of cells” value ([1]; Table 3 Run No. 4, 0.5 mM, control 3.1 ± 0.2) was 27.9 ± 2.9%, the “Cells having neurites with a length at least twice the long diameter of cell/total number of cells” value ([1]; Table 3 Run No. 4, 1 mM, control 3.1 ± 0.2) was 47.8 ± 0.4% and the “Cells having neurites with a length at least twice the long diameter of cell/total number of cells” value [1, 4] was 18.4 ± 0.5%. The “Cells having neurites with a length at least twice the long diameter of cell/total number of cells” value [1, 5] was 49.5 ± 3.5% and the “Cells having neurites with a length at least twice the long diameter of cell/total number of cells” value [1, 6] was 32.6 ± 1.3%.

With `CN1C(=O)Cc2cnc(N3CCN(Cc4ccccc4)CC3)nc21` [Compound 434, 2-(4-Benzylpiperazino)-5,6-dihydro-7-methyl-6-oxo(7H)pyrrolo[2,3-d]pyrimidine 2-naphthalenesulfonate] the “Cells having neurites with a length at least twice the long diameter of cell/total number of cells” value ([1]; Table 3 Run No. 9, 0.1 mM, control 2.0 ± 1.0) was 6.0 ± 1.2%.

`CN1C(=O)Cc2cnc(N3CCNCC3)nc21.O=P(O)(O)O` [Compound 418, 5,6-Dihydro-7-methyl-6-oxo-2-piperazino(7H)pyrrolo[2,3-d]pyrimidine phosphate] was tested, and the “Cells having neurites with a length at least twice the long diameter of cell/total number of cells” value [1, 4] was 16.6 ± 1.1%, the “Cells having neurites with a length at least twice the long diameter of cell/total number of cells” value [1, 5] was 29.6 ± 3.3% and the “Cells having neurites with a length at least twice the long diameter of cell/total number of cells” value [1, 6] was 47.4 ± 1.6%.

In the case of `CCNc1nc(N2CCNCC2)ncc1C(=O)OC` [Compound 136], the “Number of neurites/cell (mean ± S.D.)” value ([2]; Table 1 Run No. 2, 1 μg/ml, control 2.06 ± 0.60) is reported as 2.14 ± 0.63 neurites/cell, the “Number of cells (mean ± S.E.)” value ([2]; Table 1 Run No. 2, 1 μg/ml, control 12.30 ± 1.48) is reported as 12.85 ± 2.52 × 10^4 /dish and the “Length of neurites (mean ± S.D.)” value ([2]; Table 1 Run No. 2, 1 μg/ml, control 55.00 ± 37.26) is reported as 60.24 ± 34.28 μm/cell. For the same compound, the “Cells having neurites with a length at least twice the long diameter of cell/total number of cells” value ([1]; Table 3 Run No. 2, 0.1 mM, control 1.9 ± 0.9) was 7.2 ± 1.7%, the “Cells having neurites with a length at least twice the long diameter of cell/total number of cells” value ([1]; Table 3 Run No. 10, 0.01 mM, control 1.7 ± 0.7) was 5.8 ± 1.6% and the “Cells having neurites with a length at least twice the long diameter of cell/total number of cells” value ([1]; Table 3 Run No. 10, 0.03 mM, control 1.7 ± 0.7) was 16.4 ± 0.9%. For the same compound, the “Cells having neurites with a length at least twice the long diameter of cell/total number of cells” value ([1]; Table 3 Run No. 10, 0.1 mM, control 1.7 ± 0.7) was 12.6 ± 1.4%.

`Cn1ccc2nc(N3CCNCC3)ncc2c1=O` [Compound 707] was tested, and the “Cells having neurites with a length at least twice the long diameter of cell/total number of cells” value ([1]; Table 3 Run No. 7, 0.3 mM, control 2.5 ± 0.7) was 7.3 ± 1.0%, the “Cells having neurites with a length at least twice the long diameter of cell/total number of cells” value ([1]; Table 3 Run No. 7, 0.5 mM, control 2.5 ± 0.7) was 10.5 ± 1.5% and the “Cells having neurites with a length at least twice the long diameter of cell/total number of cells” value ([1]; Table 3 Run No. 7, 1 mM, control 2.5 ± 0.7) was 21.4 ± 1.7%. For the same compound, the “Cells having neurites with a length at least twice the long diameter of cell/total number of cells” value ([1]; Table 3 second Run No. 5, 0.01 mM, control 4.5 ± 0.3) was 6.1 ± 0.5% and the “Cells having neurites with a length at least twice the long diameter of cell/total number of cells” value ([1]; Table 3 second Run No. 5, 1 mM, control 4.5 ± 0.3) was 36.1 ± 3.7%.
